According to paper PMC2754381 (Biochemistry, 2009):

Biological target: MtOMPDC (wildtype OMPDC from Methanothermobacter thermautotrophicus) (Methanothermobacter thermautotrophicus, UniProt O26232)
Assay: OMP decarboxylation followed at […] nm
Format: biochemical

Chain of MtOMPDC (wildtype OMPDC from Methanothermobacter thermautotrophicus) (O26232 whole entry): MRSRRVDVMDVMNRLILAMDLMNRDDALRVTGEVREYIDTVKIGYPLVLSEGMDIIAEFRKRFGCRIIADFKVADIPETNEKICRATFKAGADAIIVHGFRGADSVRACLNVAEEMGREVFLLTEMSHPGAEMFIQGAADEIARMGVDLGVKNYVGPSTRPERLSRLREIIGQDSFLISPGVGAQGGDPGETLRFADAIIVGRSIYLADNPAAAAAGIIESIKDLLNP

- Ki: ~100 µM
Compound: O=c1ccn([C@@H]2O[C@H](COP(=O)(O)O)[C@@H](O)[C@H]2O)c(=O)[nH]1 [UMP, uridine 5′-monophosphate]
